From US20260055065A1, “PYRIDAZINONE COMPOUNDS WHICH MODULATE MUTANT PROTEINS FOR TREATING RESPIRATORY DISEASES” (The Hospital for Sick Children, priority 2022, published 2026)

Key:
Assay type in all cases: cell-based
deltaF508 CFTR = target: T1, deltaF508 CFTR (Homo sapiens, UniProt P13569, DEL508-508); test: CFBE potentiator assay (FLIPR membrane potential, temperature-rescued); conditions: CFBE cells, 3 micromolar forskolin; read-out: CFBE potentiator assay pot. pEC50 (converted)
T1 construct: host or cells: CFBE (cystic fibrosis bronchial-derived cell line)
T1 sequence (P13569 with tags, fused parts or gaps DEL508-508): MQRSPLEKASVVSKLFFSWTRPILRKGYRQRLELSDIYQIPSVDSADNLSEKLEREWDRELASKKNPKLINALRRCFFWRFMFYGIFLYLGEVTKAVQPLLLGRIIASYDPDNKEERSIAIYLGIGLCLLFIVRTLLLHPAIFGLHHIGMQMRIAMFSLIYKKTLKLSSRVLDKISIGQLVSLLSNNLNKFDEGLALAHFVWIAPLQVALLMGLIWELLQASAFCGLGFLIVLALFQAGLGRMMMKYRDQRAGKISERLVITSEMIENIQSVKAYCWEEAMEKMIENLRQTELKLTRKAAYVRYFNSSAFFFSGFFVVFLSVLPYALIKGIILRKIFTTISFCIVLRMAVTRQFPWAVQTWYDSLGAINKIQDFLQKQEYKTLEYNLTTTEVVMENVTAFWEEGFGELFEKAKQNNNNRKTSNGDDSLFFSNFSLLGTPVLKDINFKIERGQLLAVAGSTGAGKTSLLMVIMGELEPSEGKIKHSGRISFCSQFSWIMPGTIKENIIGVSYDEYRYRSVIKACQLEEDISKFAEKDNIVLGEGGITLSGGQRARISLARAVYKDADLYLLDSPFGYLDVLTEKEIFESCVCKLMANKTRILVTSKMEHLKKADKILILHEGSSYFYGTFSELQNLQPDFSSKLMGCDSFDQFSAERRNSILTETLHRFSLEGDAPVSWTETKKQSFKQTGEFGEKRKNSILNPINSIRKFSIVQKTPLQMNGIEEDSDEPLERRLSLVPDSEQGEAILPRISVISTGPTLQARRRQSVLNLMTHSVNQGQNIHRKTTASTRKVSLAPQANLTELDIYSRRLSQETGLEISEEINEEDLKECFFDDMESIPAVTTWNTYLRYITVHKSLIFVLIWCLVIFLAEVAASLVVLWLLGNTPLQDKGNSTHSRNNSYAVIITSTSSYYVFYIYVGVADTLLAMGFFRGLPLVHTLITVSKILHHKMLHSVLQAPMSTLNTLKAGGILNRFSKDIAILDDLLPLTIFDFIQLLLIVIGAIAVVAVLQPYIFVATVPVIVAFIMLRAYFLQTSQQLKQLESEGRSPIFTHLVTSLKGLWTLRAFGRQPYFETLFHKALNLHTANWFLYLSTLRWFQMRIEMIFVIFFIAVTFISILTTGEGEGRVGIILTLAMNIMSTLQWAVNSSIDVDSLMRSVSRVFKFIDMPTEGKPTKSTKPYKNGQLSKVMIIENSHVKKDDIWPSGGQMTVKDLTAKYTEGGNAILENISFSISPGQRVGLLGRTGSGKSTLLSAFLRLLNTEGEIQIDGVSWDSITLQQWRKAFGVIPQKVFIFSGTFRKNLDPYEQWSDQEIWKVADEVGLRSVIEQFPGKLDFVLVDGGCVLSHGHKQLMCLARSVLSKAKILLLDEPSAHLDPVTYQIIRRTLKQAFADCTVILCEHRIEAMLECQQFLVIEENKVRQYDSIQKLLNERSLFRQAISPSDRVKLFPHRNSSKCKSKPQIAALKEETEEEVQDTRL
Method: Cell culture: HEK293 cells stably expressing human deltaF508 CFTR were cultured in DMEM/F12 medium containing 10% fetal bovine serum (FBS) and 600 micrograms/mL geneticin. For functional CFTR assays, cryo-preserved cells were quickly thawed in a 37° C. water bath, diluted with warm DMEM/F12 medium containing 10% FBS, spun down at 300×g for 5 mins and resuspended in the same medium at a density of 300,000 cells/mL. A cystic fibrosis bronchial-derived cell line complemented with a 4.7 Kb deltaF508 CFTR cDNA (“CFBE”) was obtained from Dr. Dieter Gruenert under a license from UCSF. These cells were cultured in MEM with Earle's salt (Invitrogen)supplemented with 10% fetal bovine serum (Invitrogen) and 300 micrograms/mL hygromycin (Millipore). CFBE cells were grown on flasks coated with a fibronectin solution containing LHC basal medium (Invitrogen), 0.001% bovine serum albumin (Sigma), 1% v/v Vitrogen 100 (BD Bioscience) and 10 micrograms/mL human fibronectin (Life Technologies). All cells were grown at 37° C. and 5% CO2 unless specified for an assay.
CFBE potentiator assay: CFBE cells were dissociated for 10 mins at 37° C. with Hank's balanced salt solution containing 0.6 mM EDTA and 10% of a 0.25% Trypsin/EDTA solution (all from Life Technologies). An equal amount of CFBE cell growth medium (see Cell culture above) was then added to the flasks and cells were spun at 500×g for 10 mins. Cells were re-suspended in cell medium at a density of 150,000 cells/mL and plated in 384-well black, poly-D-Lysine-coated plates (7,500 cells/well). Cells were then grown at 37° C., 5% CO2 for a total of 6-8 days to allow differentiation. Cell medium was changed every 2-3 days. The day before each experiment, culture medium was removed, fresh culture medium was added and cells were placed at 30° C., 5% CO2 for 18-24 hrs to allow temperature rescue of delF508 CFTR. Potentiation activity was measured as described above for HEK cells except cells were stained for exactly 60 mins, compounds (or DMSO for negative control) were mixed with assay buffer containing 3 micromolar forskolin, and the positive control wells had assay buffer containing 3 micromolar forskolin and 9 micromolar VX-770 (Selleckchem).
Data analysis: CFTR activity was defined as maximum fluorescence signal after addition minus baseline fluorescence. All data were normalized to each plate's positive and negative controls and expressed as percent responses. Concentration response curves were analyzed by fitting the data to a 4-parameter logistic equation in Microcal's Origin or IDBS' Activity Base software.

F508del-CFTR = target: T2, F508del-CFTR (Homo sapiens, UniProt P13569, DEL508-508); test: Dose response, potentiation of forskolin-activated F508del-CFTR chloride channel activity in CFBE41o- cells (fluorescence membrane potential assay); conditions: low temperature (27 degrees Celsius) correction, read-out: potency in potentiating cyclic AMP dependent F508del-CFTR chloride channel activity
T2 construct: F508del-CFTR was endogenously expressed in CFBE41o^− cells; endogenous in cells; host or cells: CFBE41o-
T2 sequence (P13569 with tags, fused parts or gaps DEL508-508): as above
Method: In these studies, F508del-CFTR was endogenously expressed in CFBE41o^− cells and it's trafficking defect corrected by low temperature (27 degrees Celsius) incubation. The fold increase in cyclic AMP dependent F508del-CFTR mediated chloride channel activity induced by potentiator treatment was determined using the fluorescence-based, membrane potential difference assay previously described.

Wt-CFTR [1] = target: T3, Wt-CFTR (Homo sapiens, UniProt P13569); test: Ussing chamber short circuit current, primary human bronchial epithelial cultures; conditions: 1 μM, after forskolin 100 nM
T3 sequence (P13569 whole entry): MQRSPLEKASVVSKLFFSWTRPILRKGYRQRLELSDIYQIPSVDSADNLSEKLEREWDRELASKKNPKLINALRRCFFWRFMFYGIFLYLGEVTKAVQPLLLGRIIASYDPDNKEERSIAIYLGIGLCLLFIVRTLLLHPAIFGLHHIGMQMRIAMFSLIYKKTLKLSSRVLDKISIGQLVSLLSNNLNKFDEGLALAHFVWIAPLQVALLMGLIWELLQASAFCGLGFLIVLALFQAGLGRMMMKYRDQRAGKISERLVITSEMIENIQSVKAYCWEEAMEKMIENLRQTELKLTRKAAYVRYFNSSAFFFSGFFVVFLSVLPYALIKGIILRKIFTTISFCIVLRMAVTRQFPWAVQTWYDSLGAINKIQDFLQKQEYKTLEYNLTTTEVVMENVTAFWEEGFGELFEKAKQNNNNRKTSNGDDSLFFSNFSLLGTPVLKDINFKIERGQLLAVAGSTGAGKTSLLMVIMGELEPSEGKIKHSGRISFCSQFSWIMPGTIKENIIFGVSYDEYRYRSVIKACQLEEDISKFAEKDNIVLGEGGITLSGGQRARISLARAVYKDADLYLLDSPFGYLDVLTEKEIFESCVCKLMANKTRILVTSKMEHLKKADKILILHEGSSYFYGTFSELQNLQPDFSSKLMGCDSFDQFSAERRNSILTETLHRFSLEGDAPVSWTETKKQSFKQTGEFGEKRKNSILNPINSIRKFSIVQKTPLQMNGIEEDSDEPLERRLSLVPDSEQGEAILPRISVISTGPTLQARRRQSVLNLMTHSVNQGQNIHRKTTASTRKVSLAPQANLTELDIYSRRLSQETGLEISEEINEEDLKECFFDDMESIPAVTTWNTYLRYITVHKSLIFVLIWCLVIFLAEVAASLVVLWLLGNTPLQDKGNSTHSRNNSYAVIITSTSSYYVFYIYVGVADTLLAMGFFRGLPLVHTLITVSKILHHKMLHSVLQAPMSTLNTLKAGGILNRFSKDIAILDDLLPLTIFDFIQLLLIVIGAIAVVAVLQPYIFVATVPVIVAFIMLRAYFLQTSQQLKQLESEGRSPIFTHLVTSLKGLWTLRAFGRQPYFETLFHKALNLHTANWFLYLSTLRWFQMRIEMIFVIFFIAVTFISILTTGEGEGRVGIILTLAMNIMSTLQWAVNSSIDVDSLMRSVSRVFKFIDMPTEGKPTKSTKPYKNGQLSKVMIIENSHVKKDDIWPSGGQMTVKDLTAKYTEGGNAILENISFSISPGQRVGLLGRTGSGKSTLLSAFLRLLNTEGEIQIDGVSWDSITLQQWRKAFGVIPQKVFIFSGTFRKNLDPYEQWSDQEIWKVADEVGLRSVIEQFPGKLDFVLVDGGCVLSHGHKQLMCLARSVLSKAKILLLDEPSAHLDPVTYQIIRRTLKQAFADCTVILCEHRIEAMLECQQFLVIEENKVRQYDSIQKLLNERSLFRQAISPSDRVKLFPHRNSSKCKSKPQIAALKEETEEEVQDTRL
Method: The impact of SK-POT (compound 11) in potentiating Wt-CFTR mediated transepithelial chloride conduction in primary human bronchial epithelial cultures was then tested.

CFTR = target: T4, CFTR (Mustela putorius furo, UniProt Q07E16); test: Ussing chamber, primary bronchial epithelial cultures from adult ferret trachea; conditions: 1 μM, after forskolin 100 nM
T4 construct: primary bronchial epithelial cultures prepared from adult ferret trachea; from tissue; host or cells: primary bronchial epithelial cultures from adult ferret trachea
T4 sequence (Q07E16 whole entry): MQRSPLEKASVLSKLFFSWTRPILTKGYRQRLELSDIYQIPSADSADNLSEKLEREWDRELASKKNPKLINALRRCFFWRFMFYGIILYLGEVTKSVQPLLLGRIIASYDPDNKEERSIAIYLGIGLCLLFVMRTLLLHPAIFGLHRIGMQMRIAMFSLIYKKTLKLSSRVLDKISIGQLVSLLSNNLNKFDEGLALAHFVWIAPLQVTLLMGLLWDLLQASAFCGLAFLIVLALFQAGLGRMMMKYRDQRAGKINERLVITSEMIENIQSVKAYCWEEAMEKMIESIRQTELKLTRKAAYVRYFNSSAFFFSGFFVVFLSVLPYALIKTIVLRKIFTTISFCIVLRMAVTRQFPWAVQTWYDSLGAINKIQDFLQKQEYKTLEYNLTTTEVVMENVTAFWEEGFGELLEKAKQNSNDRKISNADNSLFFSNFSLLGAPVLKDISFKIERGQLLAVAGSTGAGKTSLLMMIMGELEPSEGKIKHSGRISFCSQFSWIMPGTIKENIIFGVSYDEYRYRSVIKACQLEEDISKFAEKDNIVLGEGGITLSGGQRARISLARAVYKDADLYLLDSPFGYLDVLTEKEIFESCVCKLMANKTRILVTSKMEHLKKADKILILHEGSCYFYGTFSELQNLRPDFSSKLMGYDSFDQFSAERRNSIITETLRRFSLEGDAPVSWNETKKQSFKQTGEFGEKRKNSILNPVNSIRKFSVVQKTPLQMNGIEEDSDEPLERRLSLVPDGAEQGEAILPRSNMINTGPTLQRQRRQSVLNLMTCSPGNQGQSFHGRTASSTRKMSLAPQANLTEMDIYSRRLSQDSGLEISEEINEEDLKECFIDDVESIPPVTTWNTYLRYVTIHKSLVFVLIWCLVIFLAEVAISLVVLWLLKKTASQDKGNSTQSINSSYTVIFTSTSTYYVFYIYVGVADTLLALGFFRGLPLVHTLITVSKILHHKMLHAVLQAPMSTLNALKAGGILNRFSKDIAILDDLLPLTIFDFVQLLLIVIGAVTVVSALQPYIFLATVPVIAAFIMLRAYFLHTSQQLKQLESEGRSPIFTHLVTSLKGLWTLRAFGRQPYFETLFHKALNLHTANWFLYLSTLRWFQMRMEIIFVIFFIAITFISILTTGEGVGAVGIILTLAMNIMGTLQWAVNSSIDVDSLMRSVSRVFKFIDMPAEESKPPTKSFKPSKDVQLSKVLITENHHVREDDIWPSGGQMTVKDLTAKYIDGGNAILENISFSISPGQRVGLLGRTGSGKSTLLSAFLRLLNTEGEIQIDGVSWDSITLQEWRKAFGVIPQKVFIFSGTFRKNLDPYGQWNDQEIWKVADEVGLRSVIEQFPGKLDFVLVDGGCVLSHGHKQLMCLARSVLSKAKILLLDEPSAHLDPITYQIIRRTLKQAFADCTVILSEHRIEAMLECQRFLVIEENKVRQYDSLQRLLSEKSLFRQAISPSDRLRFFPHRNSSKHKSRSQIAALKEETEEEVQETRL
Method: Student's “t” test was conducted.

Wt-CFTR [2] = target: T3, Wt-CFTR; test: Calu-3 CSE experiments, FLiPR assay of CFTR channel activity; parameters: this airway epithelial cell line endogenously expresses this channel; endogenous in cells; host or cells: Calu-3
Method: Addition of CFTR-inhibitor indicated with grey arrow. Superimposed, we show the effect of acute co-application of VX-770 (open squares) or SK-POT (open triangles) with forskolin. […] Only SK-POT rescued CFTR channel function in the presence of cigarette smoke extract.
Calu-3 cells were cultured using EMEM (Wisent) supplemented with FBS at 20% (v/v) and 1× Penicillin/Streptomycin (Wisent). Calu-3 cells were seeded on clear-bottom, black-walled 96 well plates (Costar, Corning) at a density of 10,000 cells/well and cultured for 2 days post-confluence. Cells then received the chronic treatment of toxin and potentiator. The toxin treatment consisted of either cigarette smoke extract (CSE) prepared in 100% DMSO (University of Alabama at Birmingham), dissolved at a concentration of 2% (v/v) in Calu-3 medium, with an equivalent concentration of DMSO alone serving as the toxin control. The chronic drug treatment was co-applied with the toxin, which included either VX-770 or Compound 11 (both prepared in 100% DMSO) dissolved in Calu-3 medium at a final concentration of 1 μm. VX-770 (Vertex) and Compound 11 solutions were prepared from 1 mM stocks. The control for the drug treatment was the vehicle, DMSO at an equivalent volume. Combining the two toxin treatments and three drug treatments, a total of six treatments were applied chronically to 4 wells per condition, for a total of 24 wells receiving chronic treatment.
Cells were cultured for an additional 24 hours after chronic treatment application, after which cells were incubated with FLiPR assay buffer. The FLiPR assay buffer consisted of blue FLiPR dye (Molecular Devices) dissolved at a concentration of 0.5 mg/mL in chloride-free buffer (150 mM NMDG, 150 mM gluconolactone, 3 mM potassium gluconate, 300 mOsm and pH 7.38). Buffer was incubated with cells at 37 degrees and 5% CO2 for 35 minutes. CFTR function was assessed by measuring changes in fluorescence activity after acute CFTR channel activation by addition of cAMP agonist forskolin dissolved in chloride-free buffer to a final concentration 1 μm, using the SpectraMax i3x multimodal plate reader. Fluorescence readings (excitation 530 nm; emission 560 nm) for each well were taken at 30-second intervals for 5 minutes (baseline) or 10 minutes (activation). CFTR activity was then terminated by addition of CFTR-inhibitor 172 dissolved in chloride-free buffer to a concentration of 10 μm, to further verify the specificity of the response to CFTR activity. Fluorescence changes were recorded at 30-second intervals for another 10 minutes. In analysis, all fluorescence values were normalized per well to the final reading prior to the addition of forskolin and expressed as a percentage of this reading.

- EC50 (deltaF508 CFTR): 10 nM
- EC50 (F508del-CFTR): 5 nM
- forskolin activated short circuit currents mediated by Wt-CFTR (Wt-CFTR [1]): potentiated
- EC90 (Wt-CFTR [2]; Calu-3, CFTR channel potentiation, read-out: approximate EC90): ~1000 nM
SMILES: CC(C)(C)c1ccc(-n2nc(-c3ccc(F)cc3)c(N3CCCCC3)c(N)c2=O)cc1O [Compound 11, 4-amino-2-(4-(tert-butyl)-3-hydroxyphenyl)-6-(4-fluorophenyl)-5-(piperidin-1-yl)pyridazin-3(2H)-one]
- CFTR channel function in ferret bronchial tissue (CFTR): effective in augmenting CFTR channel function
- forskolin-activated CFTR channel activity after CSE exposure (Wt-CFTR [2]; Calu-3, CSE 2%, compounds 1 uM): significant increase in forskolin-activated CFTR channel activity
